Source: US20050164370A1 (priority 2003, published 2005)

Tests used:
Type in all cases: cell-based, yeast
[1] = system: transformed cells TM182-CYC1-ADHIPT5; test: Liquid culture of transformed cell TM182-CYC1-ADHIPT5 with examinee substance, absorbance; conditions: DOHLU+Glu, 30° C. for 24 hours
Protocol: (§1) The thus obtained culture solutions were diluted with DOHLU+Glu culture medium so that OD600 became 0.200, and then the diluted ones were further diluted with DOHLU+Glu culture medium at a dilution rate of 1/200 to obtain diluted pre-cultured solutions.
(§2) A 96-well assay plate was prepared by filling each well with 1 μL of a DMSO solution of an examinee substance (Abscisic acid or 6-Benzyl aminopurine). In this regard, it is to be noted that the DMSO solution of a examinee substance was prepared so that the concentration thereof became 200 ppm. Simultaneously, an assay plate was prepared by filling each well with 1 μL of DMSO as a blank section.
(§3) Each of the diluted pre-cultured solutions was added in a volume of 100 μL per each well of both of the assay plates, and was cultured at 30° C. for 24 hours. After incubation, the turbidity of each well was measured using a plate reader. The absorbance (OD600) of each of the culture solutions of the transformed cells containing the examinee substance was shown in Table 3. […] Further, the growth speeds of the transformed cells TM182-CRE1-CYC1IPT4 and TM182-CRE1-ADHIPT5 in the culture medium to which 6-Benzyl aminopurine was added were faster than those in the culture medium to which only DMSO was added.
as §3, with “4.” for “3.”, “TM182-CRE1-ADHIPT4, TM182-AHK2-CYC1IPT4, TM182-AHK2-CYC1IPT5” for “TM182-CRE1-CYC1IPT4”, “TM182-AHK2-ADHIPT5” for “TM182-CRE1-ADHIPT5”

[2] = system: transformed cells TM182-AHK2-ADHIPT5; test: Liquid culture of transformed cell TM182-AHK2-ADHIPT5 with examinee substance, absorbance; conditions: Table 4, TM182-AHK2-ADH-IPT5, 1 μL of 200 ppm DMSO solution per 100 μL, DOHLU+Glu, 30° C. for 24 hours
Protocol: as §1, §2
as §3, with “4.” for “3.”, “TM182-CRE1-ADHIPT4, TM182-AHK2-CYC1IPT4, TM182-AHK2-CYC1IPT5” for “TM182-CRE1-CYC1IPT4”, “TM182-AHK2-ADHIPT5” for “TM182-CRE1-ADHIPT5”

cytokinin receptor AHK2 = target: T1, cytokinin receptor AHK2 (Arabidopsis thaliana, UniProt Q9C5U2); test: Agonist-activity to cytokinin receptor, optical density of TM182-AHK2 liquid culture; parameters: expressed in transfected cells; host or cells: yeast strain TM182 carrying plasmid p415CYC-AHK2 (pHM-1 backbone, CYC1 promoter); conditions: TM182-AHK2, examinee substance 100 μM, DOLU+Glu, 30° C. for 24 hours
T1 sequence (Q9C5U2 1-1176): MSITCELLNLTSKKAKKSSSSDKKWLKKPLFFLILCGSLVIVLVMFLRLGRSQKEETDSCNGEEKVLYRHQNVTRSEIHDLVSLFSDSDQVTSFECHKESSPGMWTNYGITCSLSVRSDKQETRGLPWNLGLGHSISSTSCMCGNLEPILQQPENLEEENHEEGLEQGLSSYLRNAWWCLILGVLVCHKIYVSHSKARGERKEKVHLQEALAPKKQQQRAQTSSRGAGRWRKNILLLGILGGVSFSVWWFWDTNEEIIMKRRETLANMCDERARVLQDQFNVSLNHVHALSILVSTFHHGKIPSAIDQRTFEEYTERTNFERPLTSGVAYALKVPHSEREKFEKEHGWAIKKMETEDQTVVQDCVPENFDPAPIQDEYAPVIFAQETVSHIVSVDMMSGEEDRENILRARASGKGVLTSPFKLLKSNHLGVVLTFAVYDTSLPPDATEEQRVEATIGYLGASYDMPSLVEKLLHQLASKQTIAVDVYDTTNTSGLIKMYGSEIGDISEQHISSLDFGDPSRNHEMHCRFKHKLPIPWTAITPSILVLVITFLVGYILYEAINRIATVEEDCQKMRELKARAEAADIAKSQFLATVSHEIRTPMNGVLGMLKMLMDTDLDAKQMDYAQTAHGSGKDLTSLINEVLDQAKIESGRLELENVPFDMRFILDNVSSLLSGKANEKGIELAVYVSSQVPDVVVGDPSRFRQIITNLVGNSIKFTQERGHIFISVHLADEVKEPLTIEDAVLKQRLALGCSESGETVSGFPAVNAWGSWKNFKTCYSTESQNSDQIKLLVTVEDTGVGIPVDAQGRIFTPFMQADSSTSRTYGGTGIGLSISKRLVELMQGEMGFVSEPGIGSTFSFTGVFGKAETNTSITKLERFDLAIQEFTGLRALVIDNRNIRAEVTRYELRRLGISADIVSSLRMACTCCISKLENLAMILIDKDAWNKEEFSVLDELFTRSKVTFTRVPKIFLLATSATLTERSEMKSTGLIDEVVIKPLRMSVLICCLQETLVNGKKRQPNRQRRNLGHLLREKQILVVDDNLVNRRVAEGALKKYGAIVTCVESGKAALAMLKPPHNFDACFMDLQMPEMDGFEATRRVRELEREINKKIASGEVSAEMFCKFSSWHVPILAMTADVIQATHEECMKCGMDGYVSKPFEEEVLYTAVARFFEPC
Protocol: The transformed cells TM182-AHK2, TM182-AHK2Δ and TM182-AHK3 produced in the reference example 1 were inoculated in 200 ml of DOLU+Gal culture media and pre-cultured at 30° C. for 36 hours. The pre-cultured solutions were diluted with DOLU+Glu media as to become 0.100 as the optical density (OD600) and further the resultants were diluted with DOLU+Glu media at a dilution rate of 1/200 to obtain diluted pre-cultured solutions.
An assay plate was prepared by filling respective wells of a 96-well plate with 20 μl of solutions which were prepared by diluting DMSO solution (10 mM) of each examinee substance with DOLU+Glu medium at a dilution rate of 1/100, said solutions containing each examinee substance to be […]. […]
The diluted pre-cultured solutions were added in 200 μl each into the respective wells of both assay plates and cultured at 30° C. for 24 hours and then the optical density (OD620) of each well was measured by a plate reader. The agonist-activity of the examinee substances to the cytokinin receptor was detected by comparing the optical density measured in the testing sections to which the examinee substances were added with the optical density measured in the blank sections.

[3] = Table 3, TM182-CYC1-ADH-IPT5, 1 μL of 200 ppm DMSO solution per 100 μL
[4] = Table 4, TM182-CYC1-ADH-IPT5, 1 μL of 200 ppm DMSO solution per 100 μL

SMILES | absorbance (OD600) of the culture solution [1, 3] | absorbance (OD600) of the culture solution [1, 4] | absorbance (OD600) of the culture solution [2] | optical density (OD620) of the culture solution (cytokinin receptor AHK2)
CC1=CC(=O)CC(C)(C)[C@@]1(O)/C=C/C(C)=C\C(=O)O [Compound A, Abscisic acid] | 0.043 | 0.035 | 0.297 | 0.01
c1ccc(CNc2ncnc3nc[nH]c23)cc1 [Compound B, 6-Benzyl aminopurine] | 0.043 | 0.035 | 0.427 | 0.45
